Results reported in patent US9249157B2, “Tricyclic heterocycle compounds” (BRISTOL-MYERS SQUIBB COMPANY, priority 2012, dated 2016).

What was measured:
[1] = test system: human Notch 1; experiment: Notch-CBF1 Transactivation Assay (Notch 1); assay type: cell-based; settings: HeLa cells transfected with truncated Notch 1 and CBF1 luciferase reporter; 18 hours incubation
Description: (§1) Notch-CBF1 Transactivation Assay
(§2) The Notch-CBF1 (C-promoter binding factor I) cell based transactivation assay is based on the ability of the released Notch intracellular domain fragments (NICDs) to function as transcription factors in conjunction with CBF1 and other nuclear factors. Luciferase assays were used to measure the antagonism of Notch-CBF1 transcriptional activity. HeLa cervical cancer cells are transiently co-transfected with pCDNA3.1/Hygro plasmids containing truncated Notch 1, Notch 2, Notch 3, or Notch 4 receptors and a PGL3 luciferase reporter vector containing 4 copies of CBF1 binding site. The cells were then tested for Notch-CBF1 activity in the absence or presence of test compounds. HeLa cells, maintained in DMEM (high glucose with HEPES), 1× glutamine/penicillin/streptomycin and 10% Fetal Bovine serum, were transiently transfected in a T175 Flask (4.5×10^6 cells/flask) using the Monster Transfection Kit (Minis #MIR2906) according to manufacturers specifications. Table 1 denotes respective DNA quantity for the transfections.
(§3) Six hours post-transfection, cells were trypsinized and plated into a 384-well black Poly-D-lysine coated tissue culture plate at a density of 5×10^3 cells/well in 95 μL assay media (DMEM (high glucose with HEPES), 1× glutamine/penicillin/streptomycin, 0.0125% BSA, 1× non-essential amino acids). Assay media (5 μL) containing test compounds in final concentrations ranging from 5 μM to 8.4×10^−5 μM (3 fold serial dilutions) were added to the cells and the cell plates were then incubated for 18 hours at 37° C. and 5% CO2. Control wells contained DMSO vehicle (total counts) or 0.5 μM of an in-house small molecule inhibitor (background counts). Duplicates were used for each sample. Luciferase activity was measured after a 20-minute incubation with 50 μl STEADY-GLO® luciferase reagents according to manufacturer's specifications (Promega, Cat. #E2550) and analyzed by Envision plate reader (PerkinElmer, Boston, Mass.).
(§4) The antagonist effect of compounds was expressed as 100×[1−(average sample−average background)/(average total−average background)] where sample is the luciferase activity in the presence of test compound, background is equal to the luciferase activity in the presence of the small molecule inhibitor control and the total is signal induced in DMSO wells.

[2] = test system: human Notch 3; experiment: Notch-CBF1 Transactivation Assay (Notch 3); assay type: cell-based; settings: HeLa cells transfected with truncated Notch 3 and CBF1 luciferase reporter; 18 hours incubation
Description: as §1, §2, §3, §4

[3] = test system: human tumor xenografts; experiment: Human Tumor Xenograft Models in Mice (tumor type not stated); assay type: in vivo; settings: for antitumor activity with oral administration (PO): Human Tumor Xenograft Models in mice
Description: Human Tumor Xenograft Models in Mice
All rodents were obtained from Harlan Sprague Dawley Co. (Indianapolis, Ind.), and maintained in an ammonia-free environment in a defined and pathogen—free colony. All mice were quarantined approximately 1 week prior to their use for tumor propagation and drug efficacy testing. Mice were fed food and water ad libitum. The animal care program of Bristol-Myers Squibb Pharmaceutical Research Institute is fully accredited by the American Association for Accreditation of Laboratory Animal Care (AAALAC). All experiments were performed in accordance with Bristol-Myers Squibb (BMS) animal test methods and guidelines.
Tumor xenografts were grown and maintained subcutaneously (SC) in immunocompromized balb/c nu/nu nude or NOD-SCID mice (Harlan Sprague Dawley). Tumors were propagated as subcutaneous transplants in the appropriate mouse strain (Table 10) using tumor fragments obtained from donor mice.
The required numbers of animals needed to detect a meaningful response were pooled at the start of the experiment and each was given a subcutaneous implant of a tumor fragment (˜20 mg) with a 13-gauge trocar. Tumors were allowed to grow to the pre-determined size window (tumors outside the range were excluded) and animals were evenly distributed to various treatment and control groups. […]
Tumor response was determined by measurement of tumors with a caliper twice a week, until the tumors reached a predetermined “target” size of 0.5 gm or 1 gm depending on the tumor type. […]
Tumor response criteria are expressed in terms of tumor growth inhibition (% TGI). […] For this purpose, the tumor weight of a group is expressed as medium tumor weight (MTW).
Whenever possible, antitumor activity was determined at a range of dose levels up to the maximum tolerated dose (MTD) which is defined as the dose level immediately below which excessive toxicity (i.e., more than one death) occurred. When death occurred, the day of death was recorded. […]

Row | SMILES | IC50 [1] [nM] | IC50 [2] [nM] | antitumor activity with oral administration (PO) [3] | antitumor activity, intravenous route (IV) ([3]; human tumor xenografts implanted in mice, IV)
1 | Cc1cccc(C2=N[C@H](NC(=O)[C@H](CCC(F)(F)F)[C@@H](C(N)=O)c3ccccc3)C(=O)N3CCOc4cccc2c43)c1 [Example 13, (2R,3R)—N-((6S)-8-(3-Methylphenyl)-5-oxo-2,3,5,6-tetrahydro[1,4]oxazino[2,3,4-jk][1,4]benzodiazepin-6-yl)-3-phenyl-2-(3,3,3-trifluoropropyl)succinamide] | 14.8 | – | – | –
2 | NC(=O)[C@@H](CCCF)[C@@H](CCC(F)(F)F)C(=O)N[C@H]1N=C(c2ccccc2)c2cccc3c2N(CCO3)C1=O [Example 8, (2R,3S)-3-(3-Fluoropropyl)-N-((6S)-5-oxo-8-phenyl-2,3,5,6-tetrahydro[1,4]oxazino[2,3,4-jk][1,4]benzodiazepin-6-yl)-2-(3,3,3-trifluoropropyl)succinamide] | 14.8 | 28.1 | – | –
3 | NC(=O)[C@@H](c1ccccc1)[C@@H](CCC(F)(F)F)C(=O)N[C@H]1N=C(c2ccccc2)c2cccc3c2N(CCN3)C1=O [Example 27, (2R,3R)—N-((6S)-5-Oxo-8-phenyl-2,3,5,6-tetrahydro-1H-[1,4]diazepino[1,7,6-de]quinoxalin-6-yl)-3-phenyl-2-(3,3,3-trifluoropropyl)succinamide] | 15.1 | – | – | –
4 | NC(=O)[C@@H](CC1CC1)[C@@H](CC1CC1)C(=O)N[C@H]1N=C(c2ccccc2)c2cccc3c2N(CCO3)C1=O [Example 18, (2R,3S)-2,3-Bis(cyclopropylmethyl)-N-((6S)-5-oxo-8-phenyl-2,3,5,6-tetrahydro[1,4]oxazino[2,3,4-jk][1,4]benzodiazepin-6-yl)succinamide] | 21.9 | 16.4 | – | –
5 | Cc1cccc(C2=N[C@H](NC(=O)[C@H](CCC(F)(F)F)[C@H](CCC(F)(F)F)C(N)=O)C(=O)N3CCOc4cccc2c43)c1 [Example 11, (2R,3S)—N-((6S)-8-(3-Methylphenyl)-5-oxo-2,3,5,6-tetrahydro[1,4]oxazino[2,3,4-jk][1,4]benzodiazepin-6-yl)-2,3-bis(3,3,3-trifluoropropyl)succinamide] | – | 14.7 | – | –
6 | CCC[C@H](C(N)=O)[C@@H](CCC(F)(F)F)C(=O)N[C@H]1N=C(c2ccccc2)c2cccc3c2N(CCN3)C1=O [Example 25, (2R,3S)—N-((6S)-5-Oxo-8-phenyl-2,3,5,6-tetrahydro-1H-[1,4]diazepino[1,7,6-de]quinoxalin-6-yl)-3-propyl-2-(3,3,3-trifluoropropyl)succinamide] | 14.5 | 16.9 | – | –
7 | NC(=O)[C@@H](CC1CC1)[C@@H](CCC(F)(F)F)C(=O)N[C@H]1N=C(c2ccccc2)c2cccc3c2N(CCCO3)C1=O [Example 23, (2R,3S)-3-(Cyclopropylmethyl)-N-((7S)-6-oxo-9-phenyl-3,4,6,7-tetrahydro-2H-[1,4]diazepino[1,7,6-ef][1,5]benzoxazepin-7-yl)-2-(3,3,3-trifluoropropyl)succinamide] | – | 14.2 | – | –
8 | Cc1nocc1[C@H](C(N)=O)[C@@H](CCC(F)(F)F)C(=O)N[C@H]1N=C(c2ccccc2)c2cccc3c2N(CC(F)(F)CO3)C1=O [Example 1, (2R,3R)—N-((7S)-3,3-Difluoro-6-oxo-9-phenyl-3,4,6,7-tetrahydro-2H-[1,4]diazepino[1,7,6-ef][1,5]benzoxazepin-7-yl)-3-(3-methyl-4-isoxazolyl)-2-(3,3,3-trifluoropropyl)succinamide] | – | – | showed antitumor activity | exhibited antitumor activity
9 | CCC[C@H](C(N)=O)[C@@H](CCC(F)(F)F)C(=O)N[C@H]1N=C(c2cccc(Cl)c2)c2cccc3c2N(CCO3)C1=O [Example 15, (2R,3S)—N-((6S)-8-(3-Chlorophenyl)-5-oxo-2,3,5,6-tetrahydro[1,4]oxazino[2,3,4-jk][1,4]benzodiazepin-6-yl)-3-propyl-2-(3,3,3-trifluoropropyl)succinamide] | 16.9 | 28.3 | – | –
10 | NC(=O)[C@@H](CC1CC1)[C@@H](CCC(F)(F)F)C(=O)N[C@H]1N=C(c2ccccc2)c2cccc3c2N(CC(F)(F)CO3)C1=O [Example 2, (2R,3S)-3-(Cyclopropylmethyl)-N-((7S)-3,3-difluoro-6-oxo-9-phenyl-3,4,6,7-tetrahydro-2H-[1,4]diazepino[1,7,6-ef][1,5]benzoxazepin-7-yl)-2-(3,3,3-trifluoropropyl)succinamide] | – | – | showed antitumor activity | –
11 | NC(=O)[C@@H](CC1CC1)[C@@H](CCC(F)(F)F)C(=O)N[C@H]1N=C(c2ccccc2)c2cccc3c2N(CCO3)C1=O [Example 6, (2R,3S)-3-(Cyclopropylmethyl)-N-((6S)-5-oxo-8-phenyl-2,3,5,6-tetrahydro[1,4]oxazino[2,3,4-jk][1,4]benzodiazepin-6-yl)-2-(3,3,3-trifluoropropyl)succinamide] | – | 14.8 | – | –
12 | Cc1nocc1[C@H](C(N)=O)[C@@H](CCC(F)(F)F)C(=O)N[C@H]1N=C(c2ccccc2)c2cccc3c2N(CCN3)C1=O [Example 24, (2R,3R)-3-(3-Methyl-4-isoxazolyl)-N-((6S)-5-oxo-8-phenyl-2,3,5,6-tetrahydro-1H-[1,4]diazepino[1,7,6-de]quinoxalin-6-yl)-2-(3,3,3-trifluoropropyl)succinamide] | 16.9 | 28.3 | – | –
13 | CCC[C@@H](C(=O)N[C@H]1N=C(c2ccccc2)c2cccc3c2N(CCO3)C1=O)[C@H](CCC(F)(F)F)C(N)=O [Example 17, (2R,3S)—N-((6S)-5-Oxo-8-phenyl-2,3,5,6-tetrahydro[1,4]oxazino[2,3,4-jk][1,4]benzodiazepin-6-yl)-2-propyl-3-(3,3,3-trifluoropropyl)succinamide] | 13.9 | 20.1 | – | –
